Measured values taken from PubChem BioAssay AID2060907 (Molecular Pharmacology Branch, DTP, NCI, 2025).
pIC50: −log10 of the molar value. One block for each compound: values may come before it.

Test system: 388556-164-R-J1-PDC complex spheroid viability
Assay: Anticancer human tumor 388556-164-R-J1-PDC patient-derived colon adenocarcinoma cell line growth inhibition [RAS]
Details: for pIC50: curve of first compound; for viability, T/C: stronger effect = lower value
Method in brief: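 Multi-cell-type spheroids: tumor cells plus HUVEC endothelial cells and mesenchymal stem cells. RAS-pathway inhibitors were combined with targeted agents, each dosed in half-log steps down from clinical Cmax, or from 10 microM when Cmax was unknown.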

[1] = second compound 0.000949 µM, first compound 0.0316 µM
[2] = second compound 0.000949 µM, first compound 0.1 µM
[3] = second compound 0.000949 µM, first compound 0.316 µM
[4] = second compound 0.000949 µM, first compound 1 µM
[5] = second compound 0.003 µM, first compound 0.0316 µM
[6] = second compound 0.003 µM, first compound 0.1 µM
[7] = second compound 0.003 µM, first compound 0.316 µM
[8] = second compound 0.003 µM, first compound 1 µM
[9] = second compound 0.00949 µM, first compound 0.0316 µM
[10] = second compound 0.00949 µM, first compound 0.1 µM
[11] = second compound 0.00949 µM, first compound 0.316 µM
[12] = second compound 0.00949 µM, first compound 1 µM
[13] = second compound 0.03 µM, first compound 0.0316 µM
[14] = second compound 0.03 µM, first compound 0.1 µM
[15] = second compound 0.03 µM, first compound 0.316 µM
[16] = second compound 0.03 µM, first compound 1 µM
[17] = second compound 0.0949 µM, first compound 0.0316 µM
[18] = second compound 0.0949 µM, first compound 0.1 µM
[19] = second compound 0.0949 µM, first compound 0.316 µM
[20] = second compound 0.0949 µM, first compound 1 µM
[21] = second compound 0.3 µM, first compound 0.0316 µM
[22] = second compound 0.3 µM, first compound 0.1 µM
[23] = second compound 0.3 µM, first compound 0.316 µM
[24] = second compound 0.3 µM, first compound 1 µM
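Note: spheroids exposed to compound for 7 days before readout.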
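Throughout, for viability, T/C: 100% = DMSO vehicle control luminescence.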

- pIC50 (second compound 0.00316 µM): < 6.00
- pIC50 (second compound 0.01 µM): < 6.00
- pIC50 (second compound 0.0316 µM): < 6.00
- pIC50 (second compound 0.1 µM): < 6.00
- pIC50 (second compound 0.316 µM): < 6.00
- pIC50 (second compound 1 µM): < 6.00
SMILES: CCN1CCN(Cc2ccc(Nc3ncc(F)c(-c4cc(F)c5nc(C)n(C(C)C)c5c4)n3)nc2)CC1 + C=CC(=O)N1CCN(c2nc(OCC3CCCN3C)nc3c(F)c(-c4nc(N)cc(C)c4C(F)(F)F)c(Cl)cc23)C(C)C1
- viability, T/C (second compound 0.00316 µM, first compound 0.00316 µM): 111%
- viability, T/C (second compound 0.00316 µM, first compound 0.01 µM): 104%
- viability, T/C (second compound 0.00316 µM, first compound 0.0316 µM): 93.1%
- viability, T/C (second compound 0.00316 µM, first compound 0.1 µM): 88.8%
- viability, T/C (second compound 0.00316 µM, first compound 0.316 µM): 104%
- viability, T/C (second compound 0.00316 µM, first compound 1 µM): 98.3%
- viability, T/C (second compound 0.01 µM, first compound 0.00316 µM): 97.5%
- viability, T/C (second compound 0.01 µM, first compound 0.01 µM): 101%
- viability, T/C (second compound 0.01 µM, first compound 0.0316 µM): 93%
- viability, T/C (second compound 0.01 µM, first compound 0.1 µM): 95.6%
- viability, T/C (second compound 0.01 µM, first compound 0.316 µM): 96.2%
- viability, T/C (second compound 0.01 µM, first compound 1 µM): 89.4%
- viability, T/C (second compound 0.0316 µM, first compound 0.00316 µM): 100%
- viability, T/C (second compound 0.0316 µM, first compound 0.01 µM): 101%
- viability, T/C (second compound 0.0316 µM, first compound 0.0316 µM): 95.4%
- viability, T/C (second compound 0.0316 µM, first compound 0.1 µM): 93%
- viability, T/C (second compound 0.0316 µM, first compound 0.316 µM): 98.3%
- viability, T/C (second compound 0.0316 µM, first compound 1 µM): 87.8%
- viability, T/C (second compound 0.1 µM, first compound 0.00316 µM): 106%
- viability, T/C (second compound 0.1 µM, first compound 0.01 µM): 105%
- viability, T/C (second compound 0.1 µM, first compound 0.0316 µM): 90.3%
- viability, T/C (second compound 0.1 µM, first compound 0.1 µM): 88.9%
- viability, T/C (second compound 0.1 µM, first compound 0.316 µM): 91.5%
- viability, T/C (second compound 0.1 µM, first compound 1 µM): 84.5%
- viability, T/C (second compound 0.316 µM, first compound 0.00316 µM): 105%
- viability, T/C (second compound 0.316 µM, first compound 0.01 µM): 100%
- viability, T/C (second compound 0.316 µM, first compound 0.0316 µM): 98.2%
- viability, T/C (second compound 0.316 µM, first compound 0.1 µM): 89.7%
- viability, T/C (second compound 0.316 µM, first compound 0.316 µM): 91.8%
- viability, T/C (second compound 0.316 µM, first compound 1 µM): 84.3%
- viability, T/C (second compound 1 µM, first compound 0.00316 µM): 102%
- viability, T/C (second compound 1 µM, first compound 0.01 µM): 104%
- viability, T/C (second compound 1 µM, first compound 0.0316 µM): 100%
- viability, T/C (second compound 1 µM, first compound 0.1 µM): 93%
- viability, T/C (second compound 1 µM, first compound 0.316 µM): 79.7%
- viability, T/C (second compound 1 µM, first compound 1 µM): 94%

- pIC50 (second compound 0.000949 µM): < 5.00
- pIC50 (second compound 0.003 µM): 5.46
- pIC50 (second compound 0.00949 µM): 6.07
- pIC50 (second compound 0.03 µM): 7.01
- pIC50 (second compound 0.0949 µM): > 7.50
- pIC50 (second compound 0.3 µM): > 7.50
SMILES: CC(Nc1ccc2c(c1)OCCn1cc(N3C(=O)OCC3C(F)F)nc1-2)C(N)=O (stereo unspecified) + CCn1c(-c2cc(N3CCN(C)CC3)cnc2C(C)OC)c2c3cc(ccc31)-c1csc(n1)CC(NC(=O)C1CC1C)C(=O)N1CCCC(N1)C(=O)OCC(C)(C)C2
- viability, T/C [1]: 89.5%
- viability, T/C [2]: 82.3%
- viability, T/C [3]: 71.9%
- viability, T/C [4]: 66.6%
- viability, T/C (second compound 0.000949 µM, first compound 3.16 µM): 59.6%
- viability, T/C (second compound 0.000949 µM, first compound 10 µM): 49.6%
- viability, T/C [5]: 82.4%
- viability, T/C [6]: 79.2%
- viability, T/C [7]: 63.4%
- viability, T/C [8]: 62.6%
- viability, T/C (second compound 0.003 µM, first compound 3.16 µM): 51.6%
- viability, T/C (second compound 0.003 µM, first compound 10 µM): 40.2%
- viability, T/C [9]: 79.3%
- viability, T/C [10]: 75%
- viability, T/C [11]: 48.5%
- viability, T/C [12]: 52.4%
- viability, T/C (second compound 0.00949 µM, first compound 3.16 µM): 43.8%
- viability, T/C (second compound 0.00949 µM, first compound 10 µM): 31.9%
- viability, T/C [13]: 55.8%
- viability, T/C [14]: 48.4%
- viability, T/C [15]: 42%
- viability, T/C [16]: 42.7%
- viability, T/C (second compound 0.03 µM, first compound 3.16 µM): 34.7%
- viability, T/C (second compound 0.03 µM, first compound 10 µM): 25.7%
- viability, T/C [17]: 42.3%
- viability, T/C [18]: 38%
- viability, T/C [19]: 31.6%
- viability, T/C [20]: 27.9%
- viability, T/C (second compound 0.0949 µM, first compound 3.16 µM): 22.7%
- viability, T/C (second compound 0.0949 µM, first compound 10 µM): 16.3%
- viability, T/C [21]: 28.2%
- viability, T/C [22]: 26.2%
- viability, T/C [23]: 22.9%
- viability, T/C [24]: 21%
- viability, T/C (second compound 0.3 µM, first compound 3.16 µM): 18.6%
- viability, T/C (second compound 0.3 µM, first compound 10 µM): 14.2%

- pIC50 (second compound 0.000949 µM): < 6.00
- pIC50 (second compound 0.003 µM): < 6.00
- pIC50 (second compound 0.00949 µM): 6.06
- pIC50 (second compound 0.03 µM): 6.66
- pIC50 (second compound 0.0949 µM): > 8.50
- pIC50 (second compound 0.3 µM): > 8.50
SMILES: CCN1CCN(Cc2ccc(Nc3ncc(F)c(-c4cc(F)c5nc(C)n(C(C)C)c5c4)n3)nc2)CC1 + CCn1c(-c2cc(N3CCN(C)CC3)cnc2C(C)OC)c2c3cc(ccc31)-c1csc(n1)CC(NC(=O)C1CC1C)C(=O)N1CCCC(N1)C(=O)OCC(C)(C)C2
- viability, T/C (second compound 0.000949 µM, first compound 0.00316 µM): 97.5%
- viability, T/C (second compound 0.000949 µM, first compound 0.01 µM): 92.2%
- viability, T/C [1]: 93.1%
- viability, T/C [2]: 79.4%
- viability, T/C [3]: 75%
- viability, T/C [4]: 75.2%
- viability, T/C (second compound 0.003 µM, first compound 0.00316 µM): 96%
- viability, T/C (second compound 0.003 µM, first compound 0.01 µM): 96.8%
- viability, T/C [5]: 76.6%
- viability, T/C [6]: 71.3%
- viability, T/C [7]: 66.2%
- viability, T/C [8]: 58.7%
- viability, T/C (second compound 0.00949 µM, first compound 0.00316 µM): 79.8%
- viability, T/C (second compound 0.00949 µM, first compound 0.01 µM): 78.6%
- viability, T/C [9]: 68.5%
- viability, T/C [10]: 58.1%
- viability, T/C [11]: 62.7%
- viability, T/C [12]: 46.8%
- viability, T/C (second compound 0.03 µM, first compound 0.00316 µM): 59%
- viability, T/C (second compound 0.03 µM, first compound 0.01 µM): 64.4%
- viability, T/C [13]: 65.9%
- viability, T/C [14]: 57.9%
- viability, T/C [15]: 46.2%
- viability, T/C [16]: 38.7%
- viability, T/C (second compound 0.0949 µM, first compound 0.00316 µM): 45.9%
- viability, T/C (second compound 0.0949 µM, first compound 0.01 µM): 41.2%
- viability, T/C [17]: 35.4%
- viability, T/C [18]: 30.8%
- viability, T/C [19]: 34%
- viability, T/C [20]: 31.4%
- viability, T/C (second compound 0.3 µM, first compound 0.00316 µM): 33.2%
- viability, T/C (second compound 0.3 µM, first compound 0.01 µM): 32.3%
- viability, T/C [21]: 31.9%
- viability, T/C [22]: 30.8%
- viability, T/C [23]: 29.5%
- viability, T/C [24]: 31.5%
